In US6262084A, “Compounds that inhibit the binding of integrins to their receptors” (Texas Biotechnology Corporation, priority 1999, dated 2001):

Target: T1, α4β1 integrin (Homo sapiens, UniProt P05556+P13612)
T1 construct: Ramos cells fluorescently labeled with calcein; endogenous in cells; host or cells: Ramos cells
Experiment: Inhibition of adhesion of calcein-labeled Ramos cells to CS1 (fibronectin) peptide-conjugated ovalbumin
Type: cell-based
Details: for inhibition at 100 µM: Ramos, compound at a concentration of 100 μM, read-out: % A (percent inhibition of cell adhesion); for IC50: dose required to give 50% inhibition, Ramos cell adhesion to CS1-ovalbumin, 30 minutes at 37° C
Method in brief: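 Calcein-labelled Ramos cells (2.5×10^5/well) in TBS with 1 mM MgCl2, CaCl2 and MnCl2 adhered to CS1 peptide–ovalbumin coated at 5 μg/ml for 30 min at 37 °C, with or without compound. After washing, bound cells were lysed and read by fluorescence. IC50 is the dose giving 50% inhibition, and % inhibition was measured at 100 μM.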

T1 sequence (P13612 34-1032): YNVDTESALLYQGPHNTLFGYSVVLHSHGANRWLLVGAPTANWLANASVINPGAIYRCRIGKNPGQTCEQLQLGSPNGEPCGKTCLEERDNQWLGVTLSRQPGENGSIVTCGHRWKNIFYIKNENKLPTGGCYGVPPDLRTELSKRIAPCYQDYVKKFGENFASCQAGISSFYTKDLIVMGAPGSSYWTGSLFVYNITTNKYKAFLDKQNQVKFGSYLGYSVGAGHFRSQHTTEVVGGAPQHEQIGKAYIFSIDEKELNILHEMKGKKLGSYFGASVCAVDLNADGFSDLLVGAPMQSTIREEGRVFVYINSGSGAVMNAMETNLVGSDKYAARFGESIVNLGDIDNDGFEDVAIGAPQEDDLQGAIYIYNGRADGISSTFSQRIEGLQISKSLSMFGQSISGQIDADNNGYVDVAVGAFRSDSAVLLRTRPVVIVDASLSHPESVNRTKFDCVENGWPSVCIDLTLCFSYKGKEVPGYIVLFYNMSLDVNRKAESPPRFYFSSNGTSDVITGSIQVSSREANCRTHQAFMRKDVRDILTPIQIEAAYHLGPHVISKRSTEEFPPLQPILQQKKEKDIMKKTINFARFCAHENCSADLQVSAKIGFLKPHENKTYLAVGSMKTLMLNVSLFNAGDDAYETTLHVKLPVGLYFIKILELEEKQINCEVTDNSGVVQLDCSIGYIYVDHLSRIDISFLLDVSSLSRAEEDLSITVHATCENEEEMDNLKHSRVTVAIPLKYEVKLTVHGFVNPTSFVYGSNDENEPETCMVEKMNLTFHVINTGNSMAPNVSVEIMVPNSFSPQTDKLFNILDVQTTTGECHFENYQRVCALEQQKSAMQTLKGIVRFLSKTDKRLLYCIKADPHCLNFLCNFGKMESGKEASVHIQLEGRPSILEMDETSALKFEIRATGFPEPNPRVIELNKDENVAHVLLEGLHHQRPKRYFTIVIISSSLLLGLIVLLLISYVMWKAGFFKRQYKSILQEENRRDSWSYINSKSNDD
T1 sequence (P05556 21-798): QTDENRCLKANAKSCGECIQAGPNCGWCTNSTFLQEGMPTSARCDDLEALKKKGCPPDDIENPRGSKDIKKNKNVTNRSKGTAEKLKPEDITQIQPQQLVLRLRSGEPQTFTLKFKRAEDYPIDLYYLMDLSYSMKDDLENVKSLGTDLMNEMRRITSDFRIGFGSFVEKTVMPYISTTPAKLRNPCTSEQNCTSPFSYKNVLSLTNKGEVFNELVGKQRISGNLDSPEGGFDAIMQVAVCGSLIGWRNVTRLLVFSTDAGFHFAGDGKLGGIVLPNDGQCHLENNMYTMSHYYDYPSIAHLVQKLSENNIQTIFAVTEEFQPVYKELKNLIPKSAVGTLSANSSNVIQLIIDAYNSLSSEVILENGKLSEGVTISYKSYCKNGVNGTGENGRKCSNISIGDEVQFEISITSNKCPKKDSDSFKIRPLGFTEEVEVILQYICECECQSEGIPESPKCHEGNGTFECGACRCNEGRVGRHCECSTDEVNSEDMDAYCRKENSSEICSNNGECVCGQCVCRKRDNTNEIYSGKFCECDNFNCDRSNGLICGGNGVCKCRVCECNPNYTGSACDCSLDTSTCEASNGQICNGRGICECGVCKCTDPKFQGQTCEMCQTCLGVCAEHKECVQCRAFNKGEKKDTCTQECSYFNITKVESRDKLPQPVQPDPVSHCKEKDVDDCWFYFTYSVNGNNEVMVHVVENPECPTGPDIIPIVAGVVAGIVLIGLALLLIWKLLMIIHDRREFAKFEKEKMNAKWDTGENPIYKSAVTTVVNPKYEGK

Row | inhibition at 100 µM (Table 1) [%] | IC50 (Table 1) [µM] | IC50 (Table 2) [µM] | Compound
1 | 100 | 3 | – | CSCC[C@@H](CSc1ccc(N)cc1)NC(=O)N[C@@H](CC(=O)O)c1ccc2c(c1)OCO2 [(3S)-3-[({[(1S)-1-{[(4-aminophenyl)sulfanyl]methyl}-3-(methylsulfanyl)propyl]amino}carbonyl)amino]-3-(1,3-benzodioxol-5-yl)propanoic acid]
2 | 100 | 0.3 | – | C=CCOC[C@@H](CSc1ccccc1)NC(=O)N[C@@H](CC(=O)O)c1ccc2c(c1)OCO2 [(3S)-3-{[({(1S)-2-(allyloxy)-1-[(phenylthio)methyl]ethyl}amino)carbonyl]amino}-3-(1,3-benzodioxol-5-yl)propanoic acid]
3 | 99 | 8 | – | CSCC[C@@H](CSc1ccccc1)NC(=O)N[C@H](CSC)CC(=O)O [(3S)-4-(methylsulfanyl)-3-{[({(1S)-3-(methylsulfanyl)-1-[(phenylsulfanyl)methyl]propyl}amino)carbonyl]amino}butanoic acid]
4 | 100 | 2 | – | COC(=O)NCCC[C@@H](CSc1ccccc1)NC(=O)N[C@@H](CC(=O)O)c1ccc2c(c1)OCO2 [(8S,12S)-12-(1,3-benzodioxol-5-yl)-3,10-dioxo-8-((phenylsulfanyl)methyl)-2-oxa-4,9,11-triazatetradecan-14-oic acid]
5 | 100 | 2 | – | COC(=O)NCCCC[C@H](NC(=O)N[C@@H](CC(=O)O)c1ccc2c(c1)OCO2)C(=O)NCc1nc2ccccc2[nH]1 [(9S,13S)-9-{[(1H-benzimidazol-2-ylmethyl)amino]carbonyl}-13-(1,3-benzodioxol-5-yl)-3,11-dioxo-2-oxa-4,10,12-triazapentadecan-15-oic acid]
6 | 100 | 0.3 | – | COC(=O)NCCCC[C@H](NC(=O)N[C@@H](CC(=O)O)c1ccc2c(c1)OCO2)C(=O)NCc1ccc(N)cc1 [(9S,13S)-9-{[(4-aminobenzyl)amino]carbonyl}-13-(1,3-benzodioxol-5-yl)-3,11-dioxo-2-oxa-4,10,12-triazapentadecan-15-oic acid]
7 | 100 | 2 | – | O=C(O)C[C@H](NC(=O)N[C@@H](CCCCNC(=O)OCc1ccccc1)C(=O)NCCc1ccccn1)c1ccc2c(c1)OCO2 [(9S,13S)-13-(1,3-benzodioxol-5-yl)-3,11-dioxo-1-phenyl-9-({[2-(2-pyridinyl)ethyl]amino}carbonyl)-2-oxa-4,10,12-triazapentadecan-15-oic acid]
8 | 100 | 0.0003 | – | Cc1ccccc1NC(=O)Nc1ccc(CNC(=O)[C@H](CCCCNC(=O)OCc2ccccc2)NC(=O)N[C@@H](CC(=O)O)c2ccc3c(c2)OCO3)cc1 [(9S,13S)-13-(1,3-benzodioxol-5-yl)-3,11-dioxo-1-phenyl-9-[({4-[(2-toluidinocarbonyl)amino]benzyl}amino)carbonyl]-2-oxa-4,10,12-triazapentadecan-15-oic acid]
9 | 100 | 3 | – | O=C(O)C[C@H](NC(=O)N[C@@H](CCCCNC(=O)OCc1ccccc1)C(=O)NCCCN1CCCC1=O)c1ccc2c(c1)OCO2 [(9S,13S)-13-(1,3-benzodioxol-5-yl)-3,11-dioxo-9-({[3-(2-oxo-1-pyrrolidinyl)propyl]amino}carbonyl)-1-phenyl-2-oxa-4,10,12-triazapentadecan-15-oic acid]
10 | 100 | 0.4 | – | COC(=O)NCCCC[C@@H](CSc1ccccc1)NC(=O)N[C@@H](CC(=O)O)c1ccc2c(c1)OCO2 [(9S,13S)-13-(1,3-benzodioxol-5-yl)-3,11-dioxo-9-[(phenylsulfanyl)methyl]-2-oxa-4,10,12-triazapentadecan-15-oic acid]
11 | 20 | > 100 | – | COC(=O)NCCCC[C@@H](CS(=O)(=O)c1ccccc1)NC(=O)N[C@@H](CC(=O)O)c1ccc2c(c1)OCO2 [(9S,13S)-13-(1,3-benzodioxol-5-yl)-3,11-dioxo-9-[(phenylsulfonyl)methyl]-2-oxa-4,10,12-triazapentadecan-15-oic acid]
12 | 97 | 5 | – | COC(=O)NCCCC[C@H](NC(=O)N[C@@H](CC(=O)O)c1ccc2c(c1)OCO2)C(=O)NCC1CCNCC1 [(9S,13S)-13-(1,3-benzodioxol-5-yl)-3,11-dioxo-9-{[(4-piperidinylmethyl)amino]carbonyl}-2-oxa-4,10,12-triazapentadecan-15-oic acid]
13 | 100 | 0.0004 | – | Cc1ccccc1CNc1ccc(CNC(=O)[C@H](CCCCNC(=O)OCc2ccccc2)NC(=O)N[C@@H](CC(=O)O)c2ccc3c(c2)OCO3)cc1 [(9S,13S)-13-(1,3-benzodioxol-5-yl)-9-[({4-[(2-methylbenzyl)amino]benzyl}amino)carbonyl]-3,11-dioxo-1-phenyl-2-oxa-4,10,12-triazapentadecan-15-oic acid]
14 | 95 | 1 | – | COC(=O)NCCCC[C@H](NC(=O)N[C@@H](CC(=O)O)c1ccc2c(c1)OCO2)C(=O)NCc1ccc(N(Cc2ccccc2C)Cc2ccccc2C)cc1 [(9S,13S)-13-(1,3-benzodioxol-5-yl)-9-[({4-bis(2-methylbenzyl)amino]benzyl}amino)carbonyl]-3,11-dioxo-2-oxa-4,10,12-triazapentadecan-15-oic acid]
15 | 100 | 0.2 | – | COC(=O)NCCCC[C@H](NC(=O)N[C@@H](CC(=O)O)c1ccc2c(c1)OCO2)C(=O)NCc1ccc(OC)c(O)c1 [(9S,13S)-13-(1,3-benzodioxol-5-yl)-9-{[(3-hydroxy-4-methoxybenzyl)amino]carbonyl}-3,11-dioxo-2-oxa-4,10,12-triazapentadecan-15-oic acid]
16 | 100 | 2 | – | O=C(O)C[C@H](NC(=O)N[C@@H](CCCCNC(=O)OCc1ccccc1)C(=O)NCCc1ccc(O)cc1)c1ccc2c(c1)OCO2 [(9S,13S)-13-(1,3-benzodioxol-5-yl)-9-{[(4-hydroxyphenethyl)amino]carbonyl}-3,11-dioxo-1-phenyl-2-oxa-4,10,12-triazapentadecan-15-oic acid]
17 | 100 | 6 | – | COC(=O)NCCCC[C@H](NC(=O)N[C@@H](CC(=O)O)c1ccc2c(c1)OCO2)C(=O)NCCc1ccc(O)cc1 [(9S,13S)-13-(1,3-benzodioxol-5-yl)-9-{[(4-hydroxyphenethyl)amino]carbonyl}-3,11-dioxo-2-oxa-4,10,12-triazapentadecan-15-oic acid]
18 | 100 | 4 | – | CSCC[C@@H](CSc1ccccc1)NC(=O)N[C@H](CSc1ccccc1)CC(=O)O [Compound 8, (3S)-3-{[({(1S)-3-(methylsulfanyl)-1-[(phenylsulfanyl)methyl]propyl}amino)carbonyl]amino}-4-(phenylsulfanyl)butanoic acid]
19 | 100 | 25 | – | CCCC[C@@H](CSc1cccc(NCc2ccccc2C)c1)OC(=O)N[C@@H](CC(=O)O)c1ccc2c(c1)OCO2 [Compound 15, (3S)-3-(1,3-benzodioxol-5-yl)-3-{[({(1S)-1-[({3-[(2-methylbenzyl)amino]phenyl}thio)methyl]pentyl}oxy)carbonyl]amino}propanoic acid]
20 | 100 | 1.5 | – | CCCC[C@@H](COCc1cccs1)NC(=O)N[C@@H](CC(=O)O)c1ccc2c(c1)OCO2 [Compound 22, (3S)-3-(1,3-benzodioxol-5-yl)-3-{[({(1S)-1-[(2-thienylmethoxy)methyl]pentyl}amino)carbonyl]amino}propanoic acid]
21 | 100 | 0.2 | – | O=C(O)C[C@H](NC(=O)N[C@@H](CCCCNC(=O)OCc1ccccc1)C(=O)NCc1cccs1)c1ccc2c(c1)OCO2 [Compound 27, (9S,13S)-13-(1,3-benzodioxol-5-yl)-3,11-dioxo-1-phenyl-9-{[(2-thienylmethyl)amino]carbonyl}-2-oxa-4,10,12-triazapentadecan-15-oic acid]
22 | – | – | 0.25 | CCCC[C@H](NC(=O)N[C@@H](CC(=O)O)c1ccc2c(c1)OCO2)C(=O)NCc1cccs1 [Compound 34, (3S)-3-(1,3-benzodioxol-5-yl)-3-([((1S)-1-[(2-thienylmethyl)amino]carbonylpentyl)amino]carbonylamino)propanoic acid]
23 | – | – | 0.35 | CCCC[C@H](NC(=O)N[C@@H](CC(=O)O)c1ccc2c(c1)OCO2)C(=O)Nc1ccccc1C(C)=O [Compound 35, (3S)-3-(1,3-benzodioxol-5-yl)-3-([((1S)-1-[(2-acetylphenyl)amino]carbonylpentyl)amino]carbonylamino)propanoic acid]
24 | – | – | 1 | CCCC[C@H](NC(=O)N[C@@H](CC(=O)O)c1ccc2c(c1)OCO2)C(=O)Nc1ccc(C(C)=O)cc1 [Compound 36, 3-(3S)-3-(1,3-benzodioxol-5-yl)-3-([((1S)-1-[(4-acetylphenyl)amino]carbonylpentyl)amino]carbonylamino)propanoic acid]
25 | – | – | 0.03 | CCCC[C@H](NC(=O)N[C@@H](CC(=O)O)c1ccc2c(c1)OCO2)C(=O)NCc1ccc(NCc2cccs2)cc1 [Compound 37, 3-(3S)-3-(1,3-benzodioxol-5-yl)-3-([((1S)-1-[(4-(2-thienylmethyl)aminobenzyl)amino]carbonylpentyl)amino]carbonylamino)propanoic acid]
26 | – | – | 0.02 | CCCC[C@H](NC(=O)N[C@@H](CC(=O)O)c1ccc2c(c1)OCO2)C(=O)NCc1ccc(OCc2ccccc2C)c(OC)c1 [Compound 38, 3-(3S)-3-(1,3-benzodioxol-5-yl)-3-([((1S)-1-[(4-(2-methylbenzyloxy)-3-methoxybenzyl)amino]carbonylpentyl)amino]carbonylamino)propanoic acid]
27 | – | – | 0.05 | CCCC[C@H](NC(=O)N[C@@H](CC(=O)O)c1ccc2c(c1)OCO2)C(=O)NCc1ccc(NCc2ccccc2C)cc1 [Compound 39]
